Test results taken from US20060069132A1, “Azolecarboxamide herbicides” (priority 2004, published 2006).

Key:
[1] = test system: barnyardgrass; assay: Test B flooded paddy test; type: in vivo, Echinochloa crus-galli; conditions: 1000 g ai/ha, visual rating, scale 0 to 100 (0 no effect, 100 complete control), 13 to 15 days
Outline: (§1)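 Read-out: visual comparison with controls, scored 0 to 100, where 100 means complete control and 0 no effect. Formulated chemicals were applied postemergence to plants 2–18 cm tall (1- to 4-leaf), or to flooded-paddy plants at the 2-leaf stage, then held 13 to 15 days under glass.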

[2] = test system: giant foxtail; assay: Test B pre-/postemergence herbicide test; type: in vivo, Setaria faberi; conditions: for Plant response rating, Foxtail, Giant: preemergence; for Foxtail, Giant plant response rating: postemergence, visual rating, scale 0 (no effect) to 100 (complete control)
Outline: (§2)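 Evaluation is visual, comparing treated with control plants on a scale where 0 means no effect and 100 means full control. Treatments were preemergence, or postemergence on seedlings 2–18 cm tall, and held 13–15 days in the greenhouse.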

[3] = test system: small flower umbrella sedge; assay: Test B flooded paddy test; type: in vivo, Cyperus difformis; conditions: 1000 g ai/ha, visual rating, scale 0 to 100 (0 no effect, 100 complete control), 13 to 15 days
Outline: as §1

[4] = test system: smallflower umbrella sedge; assay: Test C flooded paddy test; type: in vivo, Cyperus difformis
[5] = test system: corn; assay: Test B pre-/postemergence herbicide test; type: in vivo, Zea mays; conditions: for Plant response rating, Corn: preemergence; for Corn plant response rating: postemergence, visual rating, scale 0 (no effect) to 100 (complete control)
Outline: as §2

[6] = test system: large crabgrass; assay: Test B pre-/postemergence herbicide test; type: in vivo, Digitaria sanguinalis; conditions: for Plant response rating, Crabgrass, Large: preemergence; for Crabgrass, Large plant response rating: postemergence, visual rating, scale 0 (no effect) to 100 (complete control)
Outline: as §2

[7] = test system: barnyardgrass; assay: Test B pre-/postemergence herbicide test; type: in vivo, Echinochloa crus-galli; conditions: for Plant response rating, Barnyardgrass: preemergence; for Barnyardgrass plant response rating: postemergence, visual rating, scale 0 (no effect) to 100 (complete control)
Outline: (§3)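 Pre: seeds sown, then sprayed. Post: 1–4-leaf plants (2–18 cm) sprayed at the same time. Paddy: flooded, treated at 2-leaf stage. Formulation: non-phytotoxic solvent with surfactant. Greenhouse 13–15 days; visual 0–100 score relative to controls.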

[8] = test system: rice; assay: Test B flooded paddy test; type: in vivo, Oryza sativa; conditions: 1000 g ai/ha, visual rating, scale 0 to 100 (0 no effect, 100 complete control), 13 to 15 days
Outline: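 Each value is a visual 0–100 response rating taken against controls 13 to 15 days after treatment in the greenhouse. Plants received formulated chemical postemergence at the 1- to 4-leaf stage or, in flooded paddy, at the 2-leaf stage.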

[9] = test system: ducksalad; assay: Test B flooded paddy test; type: in vivo, Heteranthera limosa; conditions: 1000 g ai/ha, visual rating, scale 0 to 100 (0 no effect, 100 complete control), 13 to 15 days
Outline: as §1

[10] = test system: rice; assay: Test B pre-/postemergence herbicide test; type: in vivo, Oryza sativa; conditions: preemergence
Outline: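 Plants compared with untreated controls 13–15 days post-treatment and given a visual 0–100 injury score. Applications: preemergence to seeds; postemergence at 1- to 4-leaf (2–18 cm); paddy species flooded, 2-leaf stage. Vehicle non-phytotoxic, surfactant included.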

[11] = test system: rice; assay: Test C flooded paddy test; type: in vivo, Oryza sativa
Outline: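 Injury scored visually against controls on a 0 (no effect) to 100 (complete control) scale, 12 to 14 days after treatment in greenhouse. Flooded paddy plants treated at 2-leaf stage; postemergence plants at 1- to 4-leaf stage, 2 to 18 cm tall.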

[12] = test system: wheat; assay: Test B postemergence herbicide test; type: in vivo, Triticum aestivum; parameters: key to Wheat plant response rating: 0 = no effect, 100 = complete control; conditions: postemergence, 500 g ai/ha; visual rating, scale 0 (no effect) to 100 (complete control)
Outline: (§4)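 Postemergence plants were sprayed with formulated test chemicals at 2 to 18 cm height (1- to 4-leaf stage); paddy species were grown to the 2-leaf stage. After 13 to 15 days in a greenhouse, injury was rated visually against untreated controls on a 0–100 scale (0 = no effect, 100 = complete control).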

[13] = test system: barnyardgrass; assay: Test C flooded paddy test; type: in vivo, Echinochloa crus-galli
Outline: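 Postemergence sprays applied to plants 2 to 18 cm tall (1- to 4-leaf stage); paddy species grown to 2-leaf stage under flooding. After 12 to 14 days in greenhouse, visual rating versus untreated controls on 0–100 scale (0 no effect, 100 complete control).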

[14] = test system: morningglory; assay: Test B pre-/postemergence herbicide test; type: in vivo, Ipomoea coccinea; conditions: for Plant response rating, Morningglory: preemergence; for Morningglory plant response rating: postemergence, visual rating, scale 0 (no effect) to 100 (complete control)
Outline: as §3

[15] = test system: pigweed; assay: Test B pre-/postemergence herbicide test; type: in vivo, Amaranthus retroflexus; conditions: for Plant response rating, Pigweed: preemergence; for Pigweed plant response rating: postemergence, visual rating, scale 0 (no effect) to 100 (complete control)
Outline: as §2

[16] = test system: blackgrass; assay: Test B postemergence herbicide test; type: in vivo, Alopecurus myosuroides; conditions: postemergence, visual rating, scale 0 (no effect) to 100 (complete control)
Outline: as §1

[17] = test system: lambsquarters; assay: Test B pre-/postemergence herbicide test; type: in vivo, Chenopodium album; conditions: for Plant response rating, Lambsquarters: preemergence; for Lambsquarters plant response rating: postemergence, visual rating, scale 0 (no effect) to 100 (complete control)
Outline: as §2

[18] = test system: Surinam grass; assay: Test B pre-/postemergence herbicide test; type: in vivo, Urochloa decumbens; conditions: for Plant response rating, Surinam Grass: preemergence; for Surinam Grass plant response rating: postemergence, visual rating, scale 0 (no effect) to 100 (complete control)
Outline: as §2

[19] = test system: velvetleaf; assay: Test B pre-/postemergence herbicide test; type: in vivo, Abutilon theophrasti; conditions: for Plant response rating, Velvetleaf: preemergence; for Velvetleaf plant response rating: postemergence, visual rating, scale 0 (no effect) to 100 (complete control)
Outline: as §2

[20] = test system: cocklebur; assay: Test B pre-/postemergence herbicide test; type: in vivo, Xanthium strumarium; conditions: for Plant response rating, Cocklebur: preemergence; for Cocklebur plant response rating: postemergence, visual rating, scale 0 (no effect) to 100 (complete control)
Outline: as §3

[21] = test system: ducksalad; assay: Test C flooded paddy test; type: in vivo, Heteranthera limosa
[22] = test system: wild oat; assay: Test B postemergence herbicide test; type: in vivo, Avena fatua; conditions: postemergence, visual rating, scale 0 (no effect) to 100 (complete control)
Outline: as §4

[23] = 500 g ai/ha, visual rating 0-100, 0 no effect, 100 complete control
[24] = 125 g ai/ha, 0 to 100 scale, 0 is no effect, 100 is complete control
[25] = 62 g ai/ha, scale 0 to 100 (0 no effect, 100 complete control)
[26] = 125 g ai/ha, scale 0 to 100 (0 no effect, 100 complete control)
[27] = 250 g ai/ha, scale of 0 to 100, 0 is no effect, 100 is complete control
[28] = 500 g ai/ha, visual rating after 12 to 14 days, scale 0 to 100 (0 no effect, 100 complete control)

CCn1nc(C(C)(C)C)cc1C(=O)Nc1cc(C(=O)NCCOC)ccn1 [Compound 161]
Barnyardgrass plant response rating [1]: 80
Plant response rating, Foxtail, Giant [2, 23]: 100
Foxtail, Giant plant response rating ([2]; 125 g ai/ha): 20
Foxtail, Giant plant response rating ([2]; 500 g ai/ha): 30
Plant response rating, Foxtail, Giant [2, 24]: 20
Sedge, Umbrella plant response rating [3]: 60
Sedge, Umbrella plant response rating [4, 25]: 0
Sedge, Umbrella plant response rating [4, 26]: 0
Sedge, Umbrella plant response rating [4, 27]: 25
Plant response rating, Sedge, Umbrella [4, 28]: 40
Plant response rating, Corn [5, 23]: 10
Corn plant response rating ([5]; 125 g ai/ha): 0
Corn plant response rating ([5]; 500 g ai/ha): 0
Plant response rating, Corn [5, 24]: 0
Plant response rating, Crabgrass, Large [6, 23]: 100
Crabgrass, Large plant response rating ([6]; 125 g ai/ha): 0
Crabgrass, Large plant response rating ([6]; 500 g ai/ha): 10
Plant response rating, Crabgrass, Large [6, 24]: 80
Plant response rating, Barnyardgrass [7, 23]: 100
Barnyardgrass plant response rating ([7]; 125 g ai/ha): 10
Barnyardgrass plant response rating ([7]; 500 g ai/ha): 10
Plant response rating, Barnyardgrass [7, 24]: 50
Rice plant response rating [8]: 40
Ducksalad plant response rating [9]: 80
Plant response rating, Rice [10, 23]: 40
Plant response rating, Rice [10, 24]: 0
Rice plant response rating [11, 25]: 0
Rice plant response rating [11, 26]: 10
Rice plant response rating [11, 27]: 60
Plant response rating, Rice [11, 28]: 65
Wheat plant response rating [12]: 10
Barnyardgrass plant response rating [13, 25]: 0
Barnyardgrass plant response rating ([13]; 125 g ai/ha, scale of 0 to 100, 0 is no effect, 100 is complete control): 0
Barnyardgrass plant response rating [13, 27]: 30
Plant response rating, Barnyardgrass [13, 28]: 75
Plant response rating, Morningglory [14, 23]: 40
Morningglory plant response rating ([14]; 125 g ai/ha): 20
Morningglory plant response rating ([14]; 500 g ai/ha): 20
Plant response rating, Morningglory [14, 24]: 10
Plant response rating, Pigweed [15, 23]: 100
Pigweed plant response rating ([15]; 125 g ai/ha): 20
Pigweed plant response rating ([15]; 500 g ai/ha): 60
Plant response rating, Pigweed [15, 24]: 100
Blackgrass plant response rating ([16]; 125 g ai/ha): 40
Blackgrass plant response rating ([16]; 500 g ai/ha): 40
Plant response rating, Lambsquarters [17, 23]: 100
Lambsquarters plant response rating ([17]; 125 g ai/ha): 70
Lambsquarters plant response rating ([17]; 500 g ai/ha): 70
Plant response rating, Lambsquarters [17, 24]: 100
Plant response rating, Surinam Grass [18, 23]: 60
Surinam Grass plant response rating ([18]; 125 g ai/ha): 20
Surinam Grass plant response rating ([18]; 500 g ai/ha): 20
Plant response rating, Surinam Grass [18, 24]: 10
Plant response rating, Velvetleaf [19, 23]: 70
Velvetleaf plant response rating ([19]; 125 g ai/ha): 20
Velvetleaf plant response rating ([19]; 500 g ai/ha): 50
Plant response rating, Velvetleaf [19, 24]: 20
Plant response rating, Cocklebur [20, 23]: 0
Cocklebur plant response rating ([20]; 125 g ai/ha): 20
Cocklebur plant response rating ([20]; 500 g ai/ha): 30
Plant response rating, Cocklebur [20, 24]: 0
Ducksalad plant response rating [21, 25]: 30
Ducksalad plant response rating [21, 26]: 65
Ducksalad plant response rating [21, 27]: 80
Plant response rating, Ducksalad [21, 28]: 90
Oat, Wild plant response rating ([22]; 125 g ai/ha): 30
Oat, Wild plant response rating ([22]; 500 g ai/ha): 40
